#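 A five-concentration, 48-hour dose response in 96-well plates underlies each endpoint, interpolated linearly between surrounding concentrations. GI50 marks 50% less growth. Definition used: TGI = concentration required for complete inhibition of growth.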
# Experiments:
# Assay in all cases: growth of human tumour cells (NCI), 48 h
# HS 578T breast = system: HS 578T breast
# MALME-3M melanoma = system: MALME-3M melanoma
# OVCAR-4 ovarian = system: OVCAR-4 ovarian
# SK-MEL-5 melanoma = system: SK-MEL-5 melanoma
# HOP-62 NSCLC = system: HOP-62 NSCLC
# SR leukemia = system: SR leukemia
# SF-539 CNS = system: SF-539 CNS
# SK-MEL-28 melanoma = system: SK-MEL-28 melanoma
# T-47D breast = system: T-47D breast
# PC-3 prostate = system: PC-3 prostate
# SF-268 CNS = system: SF-268 CNS
# HCC-2998 colon = system: HCC-2998 colon
# MDA-MB-435 = system: MDA-MB-435
# RXF 393 renal = system: RXF 393 renal
# 786-0 renal = system: 786-0 renal
# K-562 leukemia = system: K-562 leukemia
# LOX IMVI melanoma = system: LOX IMVI melanoma
# UO-31 renal = system: UO-31 renal
# MDA-MB-231 breast = system: MDA-MB-231 breast
# IGROV1 ovarian = system: IGROV1 ovarian
# MCF7 breast = system: MCF7 breast
# HOP-92 NSCLC = system: HOP-92 NSCLC
# TK-10 renal = system: TK-10 renal
# OVCAR-8 ovarian = system: OVCAR-8 ovarian
# RPMI-8226 leukemia = system: RPMI-8226 leukemia
# NCI-H226 lung = system: NCI-H226 lung
# M14 melanoma = system: M14 melanoma
# A549 NSCLC = system: A549 NSCLC
# UACC-257 melanoma = system: UACC-257 melanoma
# SK-MEL-2 melanoma = system: SK-MEL-2 melanoma
# EKVX NSCLC = system: EKVX NSCLC
# SN12C renal = system: SN12C renal
# A498 renal = system: A498 renal
# NCI-H460 lung = system: NCI-H460 lung
# ACHN renal = system: ACHN renal
# COLO 205 colon = system: COLO 205 colon
# OVCAR-3 ovarian = system: OVCAR-3 ovarian
# BT-549 breast = system: BT-549 breast
# MDA-MB-468 breast = system: MDA-MB-468 breast
# DU-145 prostate = system: DU-145 prostate
# SK-OV-3 ovarian = system: SK-OV-3 ovarian
# SNB-19 CNS = system: SNB-19 CNS
# CCRF-CEM leukemia = system: CCRF-CEM leukemia
# CAKI-1 renal = system: CAKI-1 renal
# NCI/ADR-RES ovarian = system: NCI/ADR-RES ovarian
# SF-295 CNS = system: SF-295 CNS
# HCT-15 colon = system: HCT-15 colon
# OVCAR-5 ovarian = system: OVCAR-5 ovarian
# KM12 colon = system: KM12 colon
# NCI-H23 lung = system: NCI-H23 lung
# UACC-62 melanoma = system: UACC-62 melanoma
# NCI-H522 lung = system: NCI-H522 lung
# HT29 colon = system: HT29 colon
# MOLT-4 leukemia = system: MOLT-4 leukemia
smiles,measurement,setting,value
COc1ccc(C(=O)/C=C/c2cc3c(cc2Br)OCO3)cc1S(N)(=O)=O,GI50,HS 578T breast,20.8 µM
same,TGI,HS 578T breast,> 100 µM
same,GI50,MALME-3M melanoma,11.6 µM
same,TGI,MALME-3M melanoma,27 µM
same,GI50,OVCAR-4 ovarian,3.72 µM
same,TGI,OVCAR-4 ovarian,32.3 µM
same,GI50,SK-MEL-5 melanoma,9.12 µM
same,TGI,SK-MEL-5 melanoma,29.2 µM
same,GI50,HOP-62 NSCLC,2.62 µM
same,TGI,HOP-62 NSCLC,> 100 µM
same,GI50,SR leukemia,1.54 µM
same,TGI,SR leukemia,4.58 µM
same,GI50,SF-539 CNS,1.72 µM
same,TGI,SF-539 CNS,3.27 µM
same,GI50,SK-MEL-28 melanoma,14.3 µM
same,TGI,SK-MEL-28 melanoma,30.2 µM
same,GI50,T-47D breast,5.99 µM
same,TGI,T-47D breast,33 µM
same,GI50,PC-3 prostate,6.7 µM
same,TGI,PC-3 prostate,28.9 µM
same,GI50,SF-268 CNS,5.33 µM
same,TGI,SF-268 CNS,29.9 µM
same,GI50,HCC-2998 colon,5.39 µM
same,TGI,HCC-2998 colon,24.2 µM
same,GI50,MDA-MB-435,13.6 µM
same,TGI,MDA-MB-435,37.5 µM
same,GI50,RXF 393 renal,2.77 µM
same,TGI,RXF 393 renal,17.5 µM
same,GI50,786-0 renal,3.68 µM
same,TGI,786-0 renal,15.4 µM
same,GI50,K-562 leukemia,0.445 µM
same,TGI,K-562 leukemia,11.8 µM
same,GI50,LOX IMVI melanoma,1.68 µM
same,TGI,LOX IMVI melanoma,3.16 µM
same,GI50,UO-31 renal,2.64 µM
same,TGI,UO-31 renal,12.8 µM
same,GI50,MDA-MB-231 breast,2.87 µM
same,TGI,MDA-MB-231 breast,8.68 µM
same,GI50,IGROV1 ovarian,2.8 µM
same,TGI,IGROV1 ovarian,12.7 µM
same,GI50,MCF7 breast,3.84 µM
same,TGI,MCF7 breast,19.5 µM
same,GI50,HOP-92 NSCLC,5.46 µM
same,TGI,HOP-92 NSCLC,23.5 µM
same,GI50,TK-10 renal,14.6 µM
same,TGI,TK-10 renal,36.3 µM
same,GI50,OVCAR-8 ovarian,2.91 µM
same,TGI,OVCAR-8 ovarian,> 100 µM
same,GI50,RPMI-8226 leukemia,2.87 µM
same,TGI,RPMI-8226 leukemia,10.6 µM
same,GI50,NCI-H226 lung,2.8 µM
same,TGI,NCI-H226 lung,10.9 µM
same,GI50,M14 melanoma,9.16 µM
same,TGI,M14 melanoma,25.5 µM
same,GI50,A549 NSCLC,2.7 µM
same,TGI,A549 NSCLC,10.5 µM
same,GI50,UACC-257 melanoma,14.9 µM
same,TGI,UACC-257 melanoma,42.7 µM
same,GI50,SK-MEL-2 melanoma,14.7 µM
same,TGI,SK-MEL-2 melanoma,30.2 µM
same,GI50,EKVX NSCLC,9.71 µM
same,TGI,EKVX NSCLC,42.9 µM
same,GI50,SN12C renal,2.05 µM
same,TGI,SN12C renal,5.32 µM
same,GI50,A498 renal,15.2 µM
same,TGI,A498 renal,28.8 µM
same,GI50,NCI-H460 lung,3.95 µM
same,TGI,NCI-H460 lung,> 100 µM
same,GI50,ACHN renal,1.97 µM
same,TGI,ACHN renal,4.11 µM
same,GI50,COLO 205 colon,5.39 µM
same,TGI,COLO 205 colon,> 100 µM
same,GI50,OVCAR-3 ovarian,2.55 µM
same,TGI,OVCAR-3 ovarian,6.62 µM
same,GI50,BT-549 breast,5.99 µM
same,TGI,BT-549 breast,49 µM
same,GI50,MDA-MB-468 breast,4.98 µM
same,TGI,MDA-MB-468 breast,24.8 µM
same,GI50,DU-145 prostate,3.71 µM
same,TGI,DU-145 prostate,12.7 µM
same,GI50,SK-OV-3 ovarian,14.4 µM
same,TGI,SK-OV-3 ovarian,34.1 µM
same,GI50,SNB-19 CNS,5.77 µM
same,TGI,SNB-19 CNS,29.7 µM
same,GI50,CCRF-CEM leukemia,6.67 µM
same,TGI,CCRF-CEM leukemia,38.1 µM
same,GI50,CAKI-1 renal,4.55 µM
same,TGI,CAKI-1 renal,23.9 µM
same,GI50,NCI/ADR-RES ovarian,2.3 µM
same,TGI,NCI/ADR-RES ovarian,6 µM
same,GI50,SF-295 CNS,6.21 µM
same,TGI,SF-295 CNS,25.4 µM
same,GI50,HCT-15 colon,1.78 µM
same,TGI,HCT-15 colon,3.79 µM
same,GI50,OVCAR-5 ovarian,2.65 µM
same,TGI,OVCAR-5 ovarian,10.2 µM
same,GI50,KM12 colon,2.45 µM
same,TGI,KM12 colon,6 µM
same,GI50,NCI-H23 lung,4.24 µM
same,TGI,NCI-H23 lung,28 µM
same,GI50,UACC-62 melanoma,4.07 µM
same,TGI,UACC-62 melanoma,23.5 µM
same,GI50,NCI-H522 lung,2.79 µM
same,TGI,NCI-H522 lung,14.9 µM
same,GI50,HT29 colon,1.88 µM
same,TGI,HT29 colon,3.66 µM
same,GI50,MOLT-4 leukemia,2.3 µM
same,TGI,MOLT-4 leukemia,7.68 µM
